This note sets out measurements from paper PMC9077138, “An investigation on 3-acetyl-7-methoxy-coumarin Schiff bases and their Ru(II) metallates with potent antiproliferative activity and enhanced LDH and NO release” (RSC Advances, 2018).

For orientation: IC50 means the concentration at which inhibition is half-maximal. One may read the zone of inhibition as the size of the clear area around the sample on an inoculated plate. Read a high zone of inhibition as a stronger effect on the plate.

Test [1] concerns human breast cancer cell line MCF-7. Kind of test: MTT cytotoxicity assay. The format is cell-based. The following applies: MTT, 48 h; read-out: IC50 values MCF-7. The source says:
(§1) The DNA/protein binding studies, antioxidant and antimicrobial studies had shown that the ligands and ruthenium(II) complexes studied here have therapeutic potentials and were subjected to study their anticancer activity. A number of coumarin derivatives have shown considerable anticancer activity against a number of cell lines. All the 3-acetyl-7-methoxy-coumarin-4(N)-substituted thiosemicarbazone ligands, metal precursor [RuHClCO(PPh3)3] and their new cyclometallated Ru(II) complexes were assessed for their cytotoxicity with two human derived cell lines namely human lung carcinoma (A549) and human breast cancer cells (MCF-7) by using MTT assay. For comparison purpose, cisplatin was used as a positive control under identical conditions.
(§2) Cytotoxic activity of the compounds was tested with human lung cancer cell lines A549, human breast cancer cell lines MCF-7 and human normal keratinocyte cells (HaCaT) by using MTT assay, which was done according to the earlier literature methods[77] and IC50 values obtained from nonlinear regression using GraphPad Prism 5.[78] The LDH release[79] and NO release[80] assays of the compounds was evaluated by the earlier reported methods.
In general terms: Formazan colour is commonly taken as a measure of viable cells.

Test [2] concerns human lung carcinoma cancer cell line A549. Kind of test: MTT cytotoxicity assay. Format: cell-based. The following applies: MTT, 48 h; read-out: IC50 values A549.
Text: as §1, §2

Test [3] has as its system human normal keratinocyte cells (HaCaT). Briefly: MTT cytotoxicity assay. Format: cell-based. The following applies: MTT, 48 h, normal cells; read-out: IC50 values HaCaT. How it is done:
In order to investigate the selectivity of the compounds for cancer cells rather than normal cell lines, the compounds were also screened for their anticancer activity on the human normal keratinocyte cells (HaCaT).
as §2

The subject of the next test is S. aureus. Briefly: In vitro antibacterial assay (zone of inhibition, MIC). Format: cell-based, Staphylococcus aureus. The following applies: S. aureus. As for the experimental part: (§3) The free ligands and their cyclometallated ruthenium(II) carbonyl complexes were screened for their in vitro antimicrobial activity against certain pathogenic bacterial and fungal species at three different concentrations using disc diffusion method.
(§4) Antimicrobial activities of [RuHClCO(PPh3)3], ligands H2L^1–4 and new organometallic Ru(II) complexes (1–4) were evaluated by agar well diffusion method[76] as reported, by taking Staphylococcus aureus, Streptococcus pneumonie, Pseudomonas aeruginosa, Salmonella paratyphi and fungus such as Candida albicans, Trichophyton rubrum, Aspergillus niger, Aspergillus fumigatus and Candida tropicalis. The above said all test organisms were obtained from the MTCC, Chandigarh, India and Microbiological laboratory, Coimbatore, Tamil Nadu, India. The antimicrobial activity of the test compounds was checked with various concentrations (25 μg ml^−1, 50 μg ml^−1 and 100 μg ml^−1) against all the test pathogens. Gentamicin and ketoconazole were used as positive controls to study the antibacterial and antifungal activities respectively. Each experiment was performed in triplicate and the results are represented as average zone of inhibition and minimum inhibitory concentration of all the test pathogens.

The next test deals with S. paratyphi. Described as above. Format: cell-based, Salmonella paratyphi.
Text: The free ligands and their cyclometallated ruthenium(II) carbonyl complexes were screened for their in vitro antimicrobial activity against certain pathogenic bacterial and fungal species at three different concentrations using disc diffusion method. […] Tested complexes had better antimicrobial activity than the ligands against all pathogens. This may be explained by Tweedy's chelation theory.[61] Coordination of ligands reduce the polarity of the metal ion essentially by partial sharing of its positive charge with the donor groups within the chelate ring system formed during the coordination and leading to the increase in lipophilic nature of the central metal atom, which favours the effective permeation through the lipid layer of microorganism.[61,62] […] When tested against T. rubrum, the activity of the complexes in the order of 3 > 2 > 1 > 4. In antibacterial studies, the complex 3 was effective against S. aureus followed by complex 2, 1 and 4 and in the case of S. pneumonie the activity of the complexes follows the order of 3 > 1 > 4 > 2. […] When tested against S. paratyphi complex 1 stood out as good followed by the complexes 4, 3 and 2 respectively.
as §4

Another test deals with S. pneumonie. The description is as above. The format is cell-based, Streptococcus pneumonie. The following applies: S. pneumonie. As for the experimental part: as §3, §4
The test system of the next test is P. aeruginosa. Described as above. The following applies: P. aeruginosa. Format: cell-based, Pseudomonas aeruginosa. As for the experimental part:
as §3, §4

Another test deals with Aspergillus niger. Briefly: In vitro antifungal assay (zone of inhibition, MIC). Format: cell-based. How it is done: as §3, §4
Another test has as its system Aspergillus fumigatus. The test is described as above. Format: cell-based. How it is done: as §3, §4
The test system of a further test is Trichophyton rubrum. The description is as above. The format is cell-based. As for the experimental part: as §3, §4
A further test concerns Candida tropicalis. The test is described as above. The format is cell-based. How it is done:
as §3, §4

A further test relates to C. albicans. Described as above. Format: cell-based, Candida albicans. The following applies: C. albicans. As for the experimental part: as §3, §4
Test [4] is described as follows: Total antioxidant capacity, phosphomolybdate method. How it is done: (§5) It has been reported that free radical species such as reactive oxygen species (ROS), are involved in the pathogenesis of various diseases through effects on DNA directly and by acting as a tumour promoter.[59,60] The DPPH free radical scavenging activity of the ligands and complexes were studied and quantitatively antioxidant properties were determined by using phosphomolybdate method. We knew that the inhibitory effects of the tested compounds on DPPH radical are concentration dependent and the suppression ratio increases with increasing sample concentrations (Fig. S36 ^†). […] In the phosphomolybdenum assay, the antioxidant activity is expressed as the number of equivalents of ascorbic acid (Table 6). The total antioxidant activity of the compounds is in the following order complex 3 > complex 2 > complex 1 > complex 4 > H2L^3 > H2L^2 > H2L^1 > H2L^4 > ascorbic acid > [RuHClCO(PPh3)3]. The results concluded that the metal complexes are better antioxidants than their parent ligands which may be due to the chelation of the ligands to metal ion.[35] The radical scavenging ability of the new complexes is greater than that of few other reported ruthenium complexes, containing Schiff base ligands.[9]
(§6) The DPPH radical scavenging activity of the compounds have been carried out according to the reported method.[74] In this study, various concentrations of the experimental standard ascorbic acid, [RuHCl(CO)(PPh3)3], ligands (20–100 μM) and complexes (2–10 μM) in methanol were taken. Total antioxidant activity of the compounds was determined by the phosphomolybdate method.[75]

Test [5] in a line: DPPH radical scavenging assay. The following applies: in methanol. How it is done: as §5, §6

Consider `N.N.[Cl][Pt][Cl]` [Cisplatin, reference compound], for which the IC50 is 16.79 ± 0.08 µM in test [1], 15.1 ± 0.05 µM in [2] and above 40 µM in test [3].

As to `CNC(C)C1CCC(N)C(OC2C(N)CC(N)C(OC3OCC(C)(O)C(NC)C3O)C2O)O1` (stereo not shown) [Gentamicin, reference compound], the zone of inhibition at 25 µg/mL with S. aureus (Staphylococcus aureus, 25 µg/ml) came out at 20.3 ± 0.43 mm; in the test on S. paratyphi (Salmonella enterica, 25 µg/ml), 20.4 ± 0.44 mm; with S. pneumonie (Streptococcus, 25 µg/ml), 20.3 ± 0.39 mm; in the test on P. aeruginosa (Pseudomonas aeruginosa, 25 µg/ml) it was 20.2 ± 0.22 mm.

Turning to `CC(=O)N1CCN(c2ccc(OCC3COC(Cn4ccnc4)(c4ccc(Cl)cc4Cl)O3)cc2)CC1` (stereo not shown) [Ketaconazole, reference compound], the zone of inhibition at 25 µg/mL with Aspergillus niger (25 µg/ml) came to 21.89 ± 0.11 mm; with Aspergillus fumigatus (25 µg/ml), 23 ± 0.25 mm; in the test with Trichophyton rubrum (25 µg/ml) it was 24.12 ± 0.16 mm; with Candida tropicalis (25 µg/ml), 19.5 ± 0.23 mm; in the test with C. albicans (Candida albicans, 25 µg/ml), 20.34 ± 0.2 mm.

`[C-]#[O+].[Cl][RuH].c1ccc(P(c2ccccc2)c2ccccc2)cc1.c1ccc(P(c2ccccc2)c2ccccc2)cc1.c1ccc(P(c2ccccc2)c2ccccc2)cc1` [[RuHClCO(PPh3)3], reference compound]: the Total antioxidant capacity in test [4] is reported as 07.02 ± 0.08 μg ascorbic acid equivalents/ml. Further, the “Minimum inhibitory concentration (MIC); head: IC50 VALUES” in the test on S. aureus was found to be 35.84 ± 0.37 µM; in the test on Aspergillus niger, 31.63 ± 0.59 µM; in the test with Aspergillus fumigatus it was 29.75 ± 0.54 µM; in the test with Trichophyton rubrum it was 31.76 ± 0.42 µM; with Candida tropicalis it was 28.79 ± 0.41 µM; in the test on S. pneumonie, 33.05 ± 0.28 µM. In addition, the “Minimum inhibitory concentration (MIC); head: IC50 VALUES” was 30.19 ± 0.53 µM in the test on P. aeruginosa and 26.09 ± 0.48 µM in the test with C. albicans. Moreover, the Zone of inhibition is on record as 15.19±0.08 mm with S. aureus (50 µg/ml); 17.67±0.78 mm with S. aureus (100 µg/ml); 13.19±0.34 mm in the test with Aspergillus niger (50 µg/ml); 15.14±0.31 mm in the test on Aspergillus niger (100 µg/ml); 15.58±0.65 mm in the test on Aspergillus fumigatus (50 µg/ml); 18.38±0.65 mm in the test with Aspergillus fumigatus (100 µg/ml). For the same molecule, the Zone of inhibition worked out at 14.18±0.54 mm with Trichophyton rubrum (50 µg/ml); 17.91±0.24 mm in the test with Trichophyton rubrum (100 µg/ml); 14.78±0.43 mm in the test on Candida tropicalis (50 µg/ml); 18.59±0.41 mm with Candida tropicalis (100 µg/ml); 13.29±0.65 mm in the test on S. paratyphi (50 µg/ml); 17.44±0.55 mm with S. paratyphi (100 µg/ml). For the same molecule, the Zone of inhibition in the test with S. pneumonie (50 µg/ml) was 14.39±0.34 mm; in the test on S. pneumonie (100 µg/ml), 16.44±0.11 mm; with P. aeruginosa (50 µg/ml), 15.78±0.44 mm; in the test with P. aeruginosa (100 µg/ml), 17.89±0.42 mm; with C. albicans (50 µg/ml), 13.29±0.45 mm; in the test with C. albicans (100 µg/ml), 16.67±0.11 mm. Also, the IC50 was 20.1 ± 0.18 µM in [1], 16 ± 0.21 µM in test [2] and above 40 µM in test [3].

For `O=C1O[C@H]([C@@H](O)CO)C(O)=C1O` [vitamin C, ascorbic acid, reference compound], inhibition in [5] was half-maximal at 98.7 ± 1.5 µM (IC50).
